In ChEMBL document CHEMBL1157432, “Effect of linkage geometry on biological activity in thiourea- and guanidine-substituted acridines and platinum-acridines” (Bioorg Med Chem Lett, 2008):

Columns and labels:
HL-60 = assay: Cytotoxicity against human HL60 cells after 72 hrs by MTS method; assay type: functional, cell-based; details: HL-60, 72 h
NCI-H460 = assay: Cytotoxicity against human NCI-H460 cells after 72 hrs by MTS method; assay type: functional, cell-based; details: NCI-H460, 72 h
[1] = Dissociation constant, pKa of the compound; assay type: physicochemical

Question: For `CNC(=N)N(C)CCNc1c2ccccc2nc2ccccc12`, which IC50 (HL-60) is on record?
Answer: 79.7 µM

Question: And the IC50 (NCI-H460)?
Answer: 10.3 µM

Question: What about the pKa [1] of the same compound?
Answer: 9

Question: Which results are given for `CNC(=N)N(C)CCNC(=O)c1cccc2cc3ccccc3nc12`?
Answer: IC50 (HL-60): 8.4 µM; IC50 (NCI-H460): > 100 µM

Question: For `CNC(=S)N(C)CCNC(=O)c1cccc2cc3ccccc3nc12`, which IC50 (HL-60) is on record?
Answer: > 100 µM

Question: And the IC50 (NCI-H460)?
Answer: 30.9 µM

Question: Which pKa [1] does the source give for `CNC(=S)N(C)CCNc1c2ccccc2nc2ccccc12` [ACRAMTU] here?
Answer: 9
